Assay [1] concerns Hes1, a Notch pathway target gene. Briefly: Hes1 protein expression in GBM neurosphere cells. The assay is classed as cell-based. Here is the method: (A, B) CD133 is expressed in GBM neurosphere line HSR-GBM1a. (C) The total cell number was decreased upon GSI-18 treatment for 48 h in this line and in the subclones of the line. […] (E) Protein expression of Hes1, a Notch pathway target gene, was reduced upon GSI-18 treatment in GBM neurosphere cells.

The test system of assay [2] is DAOY. Nature of the assay: Clonogenic assay in soft agar. The assay is classed as cell-based. The following applies: equal number of viable cells seeded after 48 hours of treatment; 2 μM; vehicle 2.9%. The protocol:
A clonogenic assay was used to determine whether cells capable of initiating anchorage-independent colonies were depleted by GSI-18. In vehicle-treated DAOY cultures, 2.9% of cells formed large colonies when seeded in soft agar (FIG. 7H). This number dropped to 0.26% when an equal number of viable cells were counted and seeded after 48 hours of treatment with GSI-18, and increased to 7.2% in the presence of constitutive Notch2 activation. Initiation of tumor xenografts was assayed next, a strategy used in several previous studies to examine the presence or absence of cancer stem cells (6-8). DAOY and DAOY:NICD2 cultures were treated with either 2 μM GSI-18 or vehicle alone, and the viable cells remaining after 48 hours counted using Trypan blue. […] To rule out the possibility that cells were alive but moribund following gamma-secretase inhibition, the experiment was repeated with cells counted after a recovery period.
The DAOY, PFSK, D283 and D425 Med cell lines were obtained from the American Type Culture Collection. […] Cell mass was measured using CellTITER assays according to the manufacturer's instructions (Promega, Madison, Wis.). Cell number and viability were assessed using the Guava PCA and Viacount reagent according to instructions (Guava Technologies, Heyward, Calif.). […] Soft agar assays were performed as previously described, with colonies counted using an automated reader (15).

For assay [3], the system named is DAOY. Nature of the assay: Nestin immunocytochemistry, strongly nestin-positive fraction. Type of assay: cell-based. The following applies: 2 μM, 48 hours.
The test system of another assay is Capan-1. Nature of the assay: Colony formation in soft agar (clonogenicity). The assay is classed as cell-based, human. The source says: Specificity of the RNA interference is confirmed by downregulation of Notch1 transcript levels with the specific siRA, but not with the scrambled controls. […] Bar graphs represent colony counts at two weeks, with mean and standard deviations calculated from triplicate experiments.
Bar graphs represent colony counts at two weeks, with mean and standard deviations calculated from triplicate experiments.
(Top) Experimental scheme illustrating pre-treatment of pancreatic cancer cell lines with GSI-18, prior to plating for soft agar assays and subcutaneous injection in athymic mice. Treatment for 24 hours with GSI-18 or vehicle is followed by recovery in full serum for a further 24 hours minus the drug. Equal numbers of viable cells from the control and treated groups are then plated for colony assays in soft agar, or injected in nude mice. Of note, during the in vitro or in vivo assays, no further drug is administered. […] The dosage required for significant inhibition of clonogenicity varies between 2 μM (Capan-1) to 5 μM (E3LZ10.7). Bar graphs represent colony counts at two weeks, with mean and standard deviations calculated from triplicate experiments. (Left) Pre-treatment with GSI-18 inhibits tumorigenicity of Panc-1 pancreatic cancer cell line in athymic mice. […] Error bars represent standard deviation of five mice per arm.

The next assay relates to Akt. Briefly: Akt phosphorylation and cleaved Caspase 3 (Western blot) in DAOY medulloblastoma cells. Type of assay: cell-based. Here is the method:
(A) Increase of cleaved Caspase 3 and loss of Akt phosphorylation is induced by 0.4 uMor higher levels of GSI-18, while overall levels of Akt and GAPDH are unchanged in DAOY medulloblastoma cells. (B) Cell death in 2 uM GSI-18 is reduced in a representative subclone of DAOY expressing activated Akt as compare to vector transfected cells. (C) Loss of Akt phosphorylation and activation of Caspase3 cleavage is induced by 2 μM or higher levels of GSI-18, while overall levels of Akt and GAPDH are unchanged in GBM neurosphere cells.
It has previously been shown that Akt is a critical effector of Notch-regulated survival and growth outside the brain (26, 27). Therefore, it was examined whether Akt was also a mediator of the pro-survival and pro-growth effects of Notch in brain tumors. GSI-18 blocks the phosphorylation of Akt required for its activation at concentrations as low as 0.4 μM (FIG. 7F). […] Thus the pro-survival effects of Notch signaling in MB appear to be mediated at least in part by Akt.
Quantitative RT PCR for Notch1, Notch2 and Hes1 was performed as previously described (29), with all reactions normalized to actin (Applied Biosystems, Foster City, Calif.). Commercially available Assay on Demand Taqman primers and probes were used to measure mRNA for Nestin, Bmi1, Tuj1 and GABRA6. Western blots contained 20 μg of protein per lane on a 10% Tris-glycine SDS-PAGE gel (Invitrogen). […]
In general terms: In western blotting, separated proteins are transferred to a membrane and probed.

Assay [4] concerns DAOY. Briefly: Double immunolabeling nestin / Ki67 (proliferation). The assay is classed as cell-based. The following applies: 2 μM, 48 hours.

SMILES strings stand for the structures.

For `O=S(=O)(NC1C2CCC1Cc1ccccc1C2)c1cccs1` (stereo not drawn) [GSI-18, [11-endo]-N-(5,6,7,8,9,10-hexahydro-6,9-methanobenzo[α][8]annulen-11-yl)-thiophene-2-sulfonamide], the “protein expression of Hes1” value in assay [1] is reported as “reduced”. Moreover, the “cells forming large colonies in soft agar” value in the assay on DAOY [2] was found to be 0.26%. In the assay on DAOY [3] (p<0.01), the “fold reduction of strongly nestin-positive fraction” value was determined as 4 fold. Also, in the assay on DAOY [3] (untreated 10%), the “strongly nestin-positive fraction after treatment” value came out at 2.4%. For the same compound, the “colony formation following pre-treatment” value in the assay with Capan-1 (24 hours pre-treatment, 24 hours recovery minus drug, colony counts at two weeks) is given as “Significant inhibition of colony formation”. Further, the “clonogenicity, colony formation in soft agar” value with Capan-1 (colony counts at two weeks) is reported as “significant inhibition of clonogencity”. Further, the “dosage required for significant inhibition of clonogenicity” value in the assay with Capan-1 (pre-treatment) turned out to be 2 µM. The “levels inducing increase of cleaved Caspase 3 and loss of Akt phosphorylation” value with Akt (DAOY medulloblastoma cells) was at least 0.4 µM. Besides, the “concentrations blocking the phosphorylation of Akt” value in the assay with Akt (MB cells) was at least 0.4 µM. Moreover, in the assay with DAOY [4], the “fraction of Ki67 positive cells in nestin-negative subpopulation” value is given as “changed only slightly” and the “proliferation (Ki67-positive cells) in nestin-positive subpopulation” value is on record as “significant reduction in the proliferation”.
